system: not listed separately; assay: Cytotoxicity against rat R28 cells assessed as decrease in cellular ATP content incubated for 24 hrs by CellTiter-Lumi Plus cell viability assay; assay type: toxicity, cell-based; details: r28, 24 h

For `CC(C)(O)[C@@H]1CC[C@@](C)([C@H]2CC[C@]3(C)[C@@H]2[C@H](O)C[C@@H]2[C@@]4(C)Cc5sc(NC(=O)c6ccccc6C(=O)O)nc5C(C)(C)[C@@H]4CC[C@]23C)O1`, which Activity is on record?
The Activity was “Non-Toxic”.

For `CC(C)(O)[C@H]1CC[C@@](C)([C@H]2CC[C@]3(C)[C@@H]2[C@H](O)C[C@@H]2[C@@]4(C)Cc5c(C(=O)O)noc5C(C)(C)[C@@H]4CC[C@]23C)O1`, which Activity is on record?
Its Activity is “Non-Toxic”.

For `CC(C)(O)[C@@H]1CC[C@@](C)([C@H]2CC[C@]3(C)[C@@H]2[C@H](O)C[C@@H]2[C@@]4(C)CC[C@H](OC(=O)CCC(=O)O)C(C)(C)[C@@H]4CC[C@]23C)O1`, which Activity is on record?
The Activity was “Non-Toxic”.

With `CC(C)(O)[C@H]1CC[C@@](C)([C@H]2CC[C@]3(C)[C@@H]2[C@H](O)C[C@@H]2[C@@]4(C)Cc5sc(NC(=O)CCCC(=O)O)nc5C(C)(C)[C@@H]4CC[C@]23C)O1` as the compound, how does the Activity read?
Its Activity is “Non-Toxic”.

Which Activity does the source give for `CCOC(=O)c1noc2c1C[C@]1(C)[C@H]3C[C@@H](O)[C@@H]4[C@@H]([C@]5(C)CC[C@@H](C(C)(C)O)O5)CC[C@@]4(C)[C@]3(C)CC[C@H]1C2(C)C` here?
Its Activity is “Non-Toxic”.

Which Activity does the source give for `CC(C)(O)[C@H]1CC[C@@](C)([C@H]2CC[C@]3(C)[C@@H]2[C@H](O)C[C@@H]2[C@@]4(C)Cc5c(C(=O)Nc6ccc(N)cc6)noc5C(C)(C)[C@@H]4CC[C@]23C)O1` here?
Its Activity is “Non-Toxic”.

For `CC(C)(O)[C@@H]1CC[C@@](C)([C@H]2CC[C@]3(C)[C@@H]2[C@H](O)C[C@@H]2[C@@]4(C)Cc5sc(N)nc5C(C)(C)[C@@H]4CC[C@]23C)O1`, which Activity is on record?
The Activity was “Non-Toxic”.

For `CC(C)(O)[C@H]1CC[C@@](C)([C@H]2CC[C@]3(C)[C@@H]2[C@H](O)C[C@@H]2[C@@]4(C)Cc5c(C(=O)NCCCCCCN)noc5C(C)(C)[C@@H]4CC[C@]23C)O1`, which Activity is on record?
The Activity was “Non-Toxic”.

Which Activity does the source give for `CC(C)(O)[C@@H]1CC[C@@](C)([C@H]2CC[C@]3(C)[C@@H]2[C@H](O)C[C@@H]2[C@@]4(C)Cc5sc(NC(=O)CCCSSCCCC(=O)O)nc5C(C)(C)[C@@H]4CC[C@]23C)O1` here?
The Activity was “Non-Toxic”.

For `CC(C)(O)[C@@H]1CC[C@@](C)([C@H]2CC[C@]3(C)[C@@H]2[C@H](O)C[C@@H]2[C@@]4(C)Cc5sc(NC(=O)CC(=O)O)nc5C(C)(C)[C@@H]4CC[C@]23C)O1`, which Activity is on record?
The Activity was “Non-Toxic”.

Which Activity does the source give for `CC(C)(O)[C@@H]1CC[C@@](C)([C@H]2CC[C@]3(C)[C@@H]2[C@H](O)C[C@@H]2[C@@]4(C)Cc5c(C(=O)NCCCCCCN)noc5C(C)(C)[C@@H]4CC[C@]23C)O1` here?
Its Activity is “Non-Toxic”.

With `CC(C)(O)[C@@H]1CC[C@@](C)([C@H]2CC[C@]3(C)[C@@H]2[C@H](O)C[C@@H]2[C@@]4(C)CC[C@H](OC(=O)CCC(=O)Nc5cccc(N)c5)C(C)(C)[C@@H]4CC[C@]23C)O1` as the compound, how does the Activity read?
Its Activity is “Non-Toxic”.

With `CC(C)(O)[C@H]1CC[C@@](C)([C@H]2CC[C@]3(C)[C@@H]2[C@H](O)C[C@@H]2[C@@]4(C)CC[C@H](OC(=O)CCC(=O)Nc5ccccc5N)C(C)(C)[C@@H]4CC[C@]23C)O1` as the compound, how does the Activity read?
Its Activity is “Non-Toxic”.

For `CC(C)(O)[C@H]1CC[C@@](C)([C@H]2CC[C@]3(C)[C@@H]2[C@H](O)C[C@@H]2[C@@]4(C)Cc5c(C(=O)NCCCN)noc5C(C)(C)[C@@H]4CC[C@]23C)O1`, which Activity is on record?
Its Activity is “Non-Toxic”.

With `CC(C)(O)[C@H]1CC[C@@](C)([C@H]2CC[C@]3(C)[C@@H]2[C@H](O)C[C@@H]2[C@@]4(C)Cc5c(C(=O)NCCCCN)noc5C(C)(C)[C@@H]4CC[C@]23C)O1` as the compound, how does the Activity read?
Its Activity is “Non-Toxic”.

For `CC(C)(O)[C@H]1CC[C@@](C)([C@H]2CC[C@]3(C)[C@@H]2[C@H](O)C[C@@H]2[C@@]4(C)CC[C@H](OC(=O)CCC(=O)O)C(C)(C)[C@@H]4CC[C@]23C)O1`, which Activity is on record?
Its Activity is “Non-Toxic”.

Which Activity does the source give for `CC(C)(O)[C@@H]1CC[C@@](C)([C@H]2CC[C@]3(C)[C@@H]2[C@H](O)C[C@@H]2[C@@]4(C)CC[C@H](OC(=O)CCC(=O)NCCCN)C(C)(C)[C@@H]4CC[C@]23C)O1` here?
Its Activity is “Non-Toxic”.

Which Activity does the source give for `CC(C)(O)[C@@H]1CC[C@@](C)([C@H]2CC[C@]3(C)[C@@H]2[C@H](O)C[C@@H]2[C@@]4(C)Cc5c(C(=O)O)noc5C(C)(C)[C@@H]4CC[C@]23C)O1` here?
Its Activity is “Non-Toxic”.

Which Activity does the source give for `CC(C)(O)[C@H]1CC[C@@](C)([C@H]2CC[C@]3(C)[C@@H]2[C@H](O)C[C@@H]2[C@@]4(C)CC[C@H](OC(=O)CCC(=O)NCCCN)C(C)(C)[C@@H]4CC[C@]23C)O1` here?
The Activity was “Non-Toxic”.

For `CC(C)(O)[C@H]1CC[C@@](C)([C@H]2CC[C@]3(C)[C@@H]2[C@H](O)C[C@@H]2[C@@]4(C)Cc5sc(N)nc5C(C)(C)[C@@H]4CC[C@]23C)O1`, which Activity is on record?
Its Activity is “Non-Toxic”.

With `CC(C)(O)[C@@H]1CC[C@@](C)([C@H]2CC[C@]3(C)[C@@H]2[C@H](O)C[C@@H]2[C@@]4(C)Cc5c(C(=O)NCCCN)noc5C(C)(C)[C@@H]4CC[C@]23C)O1` as the compound, how does the Activity read?
The Activity was “Non-Toxic”.

Which Activity does the source give for `CC(C)(O)[C@@H]1CC[C@@](C)([C@H]2CC[C@]3(C)[C@@H]2[C@H](O)C[C@@H]2[C@@]4(C)CC[C@H](OC(=O)CCC(=O)Nc5ccccc5N)C(C)(C)[C@@H]4CC[C@]23C)O1` here?
The Activity was “Non-Toxic”.

With `CC(C)(O)[C@H]1CC[C@@](C)([C@H]2CC[C@]3(C)[C@@H]2[C@H](O)C[C@@H]2[C@@]4(C)Cc5sc(NC(=O)CCCSSCCCC(=O)O)nc5C(C)(C)[C@@H]4CC[C@]23C)O1` as the compound, how does the Activity read?
Its Activity is “Non-Toxic”.

Which Activity does the source give for `CC(C)(O)[C@H]1CC[C@@](C)([C@H]2CC[C@]3(C)[C@@H]2[C@H](O)C[C@@H]2[C@@]4(C)Cc5sc(NC(=O)c6ccccc6C(=O)O)nc5C(C)(C)[C@@H]4CC[C@]23C)O1` here?
The Activity was “Non-Toxic”.

For `CC(C)(O)[C@@H]1CC[C@@](C)([C@H]2CC[C@]3(C)[C@@H]2[C@H](O)C[C@@H]2[C@@]4(C)Cc5c(C(=O)Nc6ccc(N)cc6)noc5C(C)(C)[C@@H]4CC[C@]23C)O1`, which Activity is on record?
The Activity was “Non-Toxic”.

With `CC(C)(O)[C@H]1CC[C@@](C)([C@H]2CC[C@]3(C)[C@@H]2[C@H](O)C[C@@H]2[C@@]4(C)CC[C@H](OC(=O)CCC(=O)Nc5cccc(N)c5)C(C)(C)[C@@H]4CC[C@]23C)O1` as the compound, how does the Activity read?
The Activity was “Non-Toxic”.

Which Activity does the source give for `CCOC(=O)c1noc2c1C[C@]1(C)[C@H]3C[C@@H](O)[C@@H]4[C@@H]([C@]5(C)CC[C@H](C(C)(C)O)O5)CC[C@@]4(C)[C@]3(C)CC[C@H]1C2(C)C` here?
The Activity was “Non-Toxic”.

For `CC(C)(O)[C@H]1CC[C@@](C)([C@H]2CC[C@]3(C)[C@@H]2[C@H](O)C[C@@H]2[C@@]4(C)CC[C@H](OC(=O)CCC(=O)Nc5ccc(N)cc5)C(C)(C)[C@@H]4CC[C@]23C)O1`, which Activity is on record?
Its Activity is “Non-Toxic”.

For `CC(C)(O)[C@H]1CC[C@@](C)([C@H]2CC[C@]3(C)[C@@H]2[C@H](O)C[C@@H]2[C@@]4(C)Cc5sc(NC(=O)CC(=O)O)nc5C(C)(C)[C@@H]4CC[C@]23C)O1`, which Activity is on record?
The Activity was “Non-Toxic”.

Which Activity does the source give for `CC(C)(O)[C@@H]1CC[C@@](C)([C@H]2CC[C@]3(C)[C@@H]2[C@H](O)C[C@@H]2[C@@]4(C)Cc5c(C(=O)NCCCCN)noc5C(C)(C)[C@@H]4CC[C@]23C)O1` here?
Its Activity is “Non-Toxic”.

With `CC(C)(O)[C@@H]1CC[C@@](C)([C@H]2CC[C@]3(C)[C@@H]2[C@H](O)C[C@@H]2[C@@]4(C)CC[C@H](O)C(C)(C)[C@@H]4CC[C@]23C)O1` as the compound, how does the Activity read?
The Activity was “Non-Toxic”.

For `CC(C)(O)[C@@H]1CC[C@@](C)([C@H]2CC[C@]3(C)[C@@H]2[C@H](O)C[C@@H]2[C@@]4(C)Cc5sc(NC(=O)CCCC(=O)O)nc5C(C)(C)[C@@H]4CC[C@]23C)O1`, which Activity is on record?
Its Activity is “Non-Toxic”.

With `CC(C)(O)[C@H]1CC[C@@](C)([C@H]2CC[C@]3(C)[C@@H]2[C@H](O)C[C@@H]2[C@@]4(C)CC[C@H](O)C(C)(C)[C@@H]4CC[C@]23C)O1` as the compound, how does the Activity read?
The Activity was “Non-Toxic”.

With `CC(C)(O)[C@@H]1CC[C@@](C)([C@H]2CC[C@]3(C)[C@@H]2[C@H](O)C[C@@H]2[C@@]4(C)CC[C@H](OC(=O)CCC(=O)Nc5ccc(N)cc5)C(C)(C)[C@@H]4CC[C@]23C)O1` as the compound, how does the Activity read?
Its Activity is “Non-Toxic”.

system: R28; assay: Antioxidant activity in rat R28 cells assessed as protection against OGD induced cytotoxicity by measuring cellular ATP level preincubated under OGD condition for 8 hrs followed by reoxygenation for 4 hrs by CellTiter-Lumi Plus cell viability assay; assay type: functional, cell-based; details: dose 0.1-40 µM, time 12.0 hrs

For `CC(C)(O)[C@H]1CC[C@@](C)([C@H]2CC[C@]3(C)[C@@H]2[C@H](O)C[C@@H]2[C@@]4(C)CC[C@H](O)C(C)(C)[C@@H]4CC[C@]23C)O1`, which Activity is on record?
Its Activity is “Dose-Dependent Effect”.
